Test results published in US11453642B2, “Oxygenated amino- or ammonium-containing sulfonic acid, phosphonic acid and carboxylic acid derivatives and their medical use” (GRI BIO, INC., priority 2011, dated 2022).
Values joined by “and” are separate entries in the source; they are usually repeats but may differ in a detail not shown here. Identical values can stand only once. Marks after values point to notes of the source that are not given here.

Assays:
[1] = test system: allergic contact dermatitis response in mice; assay: Allergic contact dermatitis (TDI) model in mice, mouse ear swelling test; type: in vivo
Protocol: The anti-inflammatory and anti-allergic effects of compounds 1a and 1c were assessed in a mouse model of allergic contact dermatitis, a response driven primarily by T helper type 2 (Th2) cells. […] In this model, an allergic dermatitis response is obtained by sensitizing mice to TDI and subsequently challenging them with antigen by topical administration onto the ears. A quantitative assessment of anti-inflammatory and anti-allergic effects of topically or orally administered test compounds is possible by measuring the resulting ear swelling. The advantages of the allergic contact dermatitis model (Zöllner et al., Bioessays 26:693-6 (2004)) are reproducibility and reliability (>90% of BALB/c mice respond to sensitization), a short induction protocol, quantitative assessment by measuring ear thickness, atopic dermatitis-like skin lesions can be induced, and clinically relevant pharmaceuticals, such as corticosteroids, calcineurin-inhibitors and PDE4-inhibitors, are effective in this model.
Female BALB/c-mice were obtained from Charles River (Sulzfeld, Germany) at age 8 weeks. All animals were housed in groups of eight per cage at 22° C. with a 12 h light/dark-cycle, Water and a standard diet (Altromin, Lage/Lippe, Germany) were available ad libitum. All animals were acclimatized for one week before experimental procedures were commenced.
Experimental procedures for BALB/c mice housing, TDI sensitization and challenge, and measurement of ear thickness were performed as previously described (Baumer et al., J Pharm Pharmacol, 55:1107-1114 (2003)) with the following modifications. For active sensitization, 100 μL of 5% (w/v) TDI was administered to the shaved and stripped abdominal epidermis on day one, and for the next three consecutive days, 50 μL of 5% (My) TDI was applied. The allergic reaction was boosted 21 days later by application of 50 μL of 0.5% (w/v) TDI. For the examination of test compound effects, the left ears were used for the TDI challenge (20 μL of 0.5% in acetone) and ear thickness measured 3 h before and 24 h after challenge.
Group size was n=7 mice unless otherwise stated. Test compounds were freshly prepared before administration.
Administration time: to determine optimal time for administration treatment groups were treated orally by gavage with 100 mg/kg of compound 1a or 1c (suspended in 0.5% tylose, 10 mL/kg) 1, 4 or 16 h before topical TDI challenge. One group was treated with 100 mg/kg miltefosine orally, 16 h before challenge (based on available data for optimal administration time for miltefosine) and vehicle treated mice received tylose (10 mL/kg) orally, 4 h before challenge.
Dose-response: two groups of mice were treated orally with compound 1a at 25 mg/kg or 100 mg/kg suspended in 0.5% tylose, 4 h before topical TDI challenge. Vehicle treated mice received 0.5% tylose orally 4 h before challenge. As a positive control, dexamethasone was administered in saline solution at 1 mg/kg or 3 mg/kg, 2 h and 30 min before challenge and 1 h after challenge. The dose and dosing scheme for dexamethasone was based on previous experience showing a maximal effect in this model.
Compound 1a was administered to two groups of mice topically in 20 μl of a 2% or 6% solution in propyleneglycol. The suspension was heated to 60° C. and mixed using a thermomixer (Eppendorf) until it became clear. The solution was applied, 2 h before topical TDI challenge by administration of 10 μl onto each of the inner and outer surfaces of the left ears. A vehicle group (17=5) was treated with propyleneglycol. As a positive control, diflorasone, diacetate was administered at 0.01% (low dose) and 0.05% (high dose) in 20 μl acetone, 2 h before challenge. A basal control group was left untreated.
Mean and standard error of the mean (SEM) were calculated from individual ear edema values. […]

[2] = test system: RBL-2H3 cells; assay: Maximum tolerated concentration (cytotoxicity by lactate dehydrogenase release); type: cell-based, Rat; details: for MTC (maximum tolerated concentration): highest concentration not causing cytotoxicity (LDH release), RBL-2H3 cells; for SI (safety index): ratio between MTC and IC50
Text: The safety index (SI) of a test compound is the ratio between the maximum tolerated concentration and the IC50 and is used as a measure of the relative safety of the test compound.

[3] = administration time study, 100 mg/kg oral, 1 h before TDI challenge
[4] = administration time study, 100 mg/kg oral, 4 h before TDI challenge
[5] = administration time study, 100 mg/kg oral, 16 h before TDI challenge

Structure (SMILES)	Inhibition of mouse ear swelling [1, 3]	Inhibition of mouse ear swelling [1, 4]	Inhibition of mouse ear swelling [1, 5]	inhibition relative to the highest dose of dexamethasone ([1]; dose-response study, oral, versus dexamethasone 3 mg/kg) [%]	Inhibition of mouse ear swelling ([1]; dose-response study, 25 mg/kg oral, 4 h before TDI challenge)	Inhibition of mouse ear swelling ([1]; dose-response study, 100 mg/kg oral, 4 h before TDI challenge)	toxicity at the doses used ([1]; oral 25 or 100 mg/kg)	reduction of ear swelling compared to vehicle control ([1]; topical solution at 2% or 6%)	Inhibition of mouse ear swelling ([1]; topical, 20 μl of 2% solution in propyleneglycol, 2 h before TDI challenge)	Inhibition of mouse ear swelling ([1]; topical, 20 μl of 6% solution in propyleneglycol, 2 h before TDI challenge)	MTC (maximum tolerated concentration) [2] [µM]	SI (safety index) [2]
CCCCCCCCCCCCCCCCN(C)CC(O)CS(=O)(=O)O (centres unmarked) [Compound 1a, 2-hydroxy-3-(N-methylhexadecylammonio)propane-sulfonate]	72.6*** %	73.4*** %	29.0%	52	45% and 44.9*** %	45% and 44.4*** %	no toxicity	up to 68%	67.9** %	63.1** %	75	10.9
CCCCCCCCCCCCN(C)CC(O)CS(=O)(=O)O (centres unmarked) [Compound 1c, 2-hydroxy-3-(N-methyldodecylammonio)propanesulfonate]	58.1** %	68.5*** %	42.7^§ %	–	–	–	–	–	–	–	200	48.8
